In publication PMC6746686, “Physicochemical Profiling of Baicalin Along with the Development and Characterization of Cyclodextrin Inclusion Complexes” (AAPS PharmSciTech, 2019):
Values after ≈ are worked out from the molar mass of the structure shown. Like-named read-outs stand apart in the source and are kept apart here.

Columns and labels:
[1] = Thermodynamic solubility by saturation shake-flask method; format: physicochemical; settings: 37°C
Description: A total of 0.94 g of 1 M HCl and 0.35 g of NaCl were diluted and dissolved to 1000 ml with distilled water and used as simulated gastric fluid (SGF) with pH 1.2. This medium served as solvent for the measurement of intrinsic solubility of baicalin.
A total of 250 ml of 0.2 M […] and 77 ml of 0.2 M NaOH were homogenized and diluted to 1000 ml with distilled water. This medium served as simulated intestinal fluid (SIF) with pH 6.8.
Blank buffer of FaSSGF pH 1.6 (1.99 g NaCl dissolved in 900 ml distilled water, adjusted the pH to 1.6 with 1 M HCl and filled to 1000 ml with distilled water) and phosphate buffer pH 6.5 (0.42 g NaOH pellets + 3.95 g NaH2PO4 monohydrate + 6.19 g NaCl dissolved in 900 ml distilled water, adjusted the pH to 6.5 with either 1 M NaOH or 1 M HCl and filled to 1000 ml with distilled water) were prepared as stock solutions.
FaSSGF was produced from blank buffer of FaSSGF pH 1.6, which was completed by 0.08 mM sodium taurocholate, 0.02 mM lecithin, 0.1 mg/ml pepsin and has osmolality of 120 ± 2.5 mOsmol/kg. To obtain the FaSSIF medium, 100 ml of blank phosphate buffer (pH 6.5) was made up by 3 mM sodium taurocholate and 0.75 mM lecithin. FaSSIF has an osmolality of 270 ± 10 mOsmol/kg.
The thermodynamic solubility of baicalin in various media was determined by saturation shake-flask method based on the method of Baka et al.. Briefly, 10 mg of baicalin was added to 5 ml of each solvent in sealed vials. All samples were stirred (approx. 500 rpm) and thermostated (IKA RT-5 power heatable magnetic stirrer, IKA Work Inc., USA) at 37 ± 0.5°C for 24 h allowing it to achieve thermodynamic equilibrium. After this period, 24 h of sedimentation cycle was adopted without stirring at 37 ± 0.5°C. To improve the efficacy of phase-separation, the saturated supernatant of samples was centrifuged at 14,000 rpm for 15 min (Herolab MicroGen 16, Herolab GmbH, Wiesloch, Germany). The aliquots (250 μl) taken for solubility experiments were suitably diluted with blank buffers and the absorbance was measured at λ = 316 nm by UV spectroscopy (Agilent 8453 UV-Visible Spectrophotometer, Agilent Technologies Ltd., USA). […] Ideally, λmax selected for the analysis of drug should not show any interference due to solvents and excipients present in the dissolution medium. […] In the solubility study, thus, λmax 316 nm was selected for the quantification of baicalin. […] All experiments were repeated three times and results were calculated from the linear calibration curve of baicalin in each media. Data are expressed as mean ± SD (μg/ml).

[2] = parameters: method as in PMID 19722585; settings: reported as "1.27 (pH 7)"; cited from earlier work
[3] = Distribution coefficient measurements by the stir-flask method (octanol/water); format: physicochemical
Description: The distribution coefficients were calculated from the absorbance of the molecules before and after partitioning at several octanol/water phase ratios. For the pH control, a pH 7.40 phosphate buffer and a standardized HCl solution were used, with an ionic strength of 0.15 M in both cases. The pH of the phosphate buffer was measured using a Metrohm 6.0204.100 combined pH glass electrode and a Metrohm 780 pH meter. The concentration change of baicalin was followed by UV-absorbance measurements. […] Then, the two phases were intensively stirred for 2 h in thermostated double-walled glass cells at constant temperature (25 ± 0.1°C). After separation of the equilibrated phases and centrifugation, the concentration of baicalin was determined by UV spectrophotometry (Perkin-Elmer Lambda 15) at several values at 279 nm (λmax). The distribution coefficients were calculated from the absorbance of baicalin before and after partitioning. […]
For baicalin, the pH-dependent distribution coefficient is the sum of four products:5 DpH=ΣxiPi=xB^3‐PB^3‐+xHB^2‐PHB^2‐+xH2B^−PH2B^−+xH3BPH3B where xi mole fractions are the pH-dependent quantities, while Pi parameters are the pH-independent ones. […]
The mole fraction data can be calculated similarly as shown in Eq. (3); thus, the partition coefficient of the anionic form can be obtained. […]

[4] = parameters: method as in PMID 26579386; settings: cited from earlier work
[5] = parameters: method as in PMID 19722585; settings: cited from earlier work
[6] = NMR-pH titrations (acid dissociation constants, species distribution); format: physicochemical; settings: for pKa: aqueous solution, 95% (v/v) H2O and 5% (v/v) D2O; for mole fraction of the monoanionic form ([H2B]−): calculated from pKa values
Description: NMR-pH titrations were performed on a Varian VNMRS spectrometer (600 MHz for ^1H). Spectra were recorded at 25°C. Titrations were carried out in solutions containing 95% (v/v) H2O and 5% (v/v) D2O, with the addition of small amounts of 0.1 M HCl and NaOH. One molar NaOH and solid NaOH crystals were also used to achieve highly basic pH values. The ionic strength was kept at 0.15 M by the presence of NaCl. The concentration of baicalin and its methyl ester was 1.0 × 10^−3 M and ascorbic acid was used in large excess (5.0 × 10^−3 M) to prevent the oxidation of the studied catechol molecules in alkaline solutions. The sample volume was 600 μl. NMR spectra were referenced to the internal standard DSS (sodium 3-(trimethylsilyl)-1-propanesulfonate). The water signal was suppressed by presaturation. Spectra were processed with VNMRj 3.2a software. pH values were read on a Metrohm 2.780.0010 precision pH meter with a 6.0258.600 Unitrode glass Pt 1000 electrode (Metrohm AG, Herisau, Switzerland). The pH-potentiometric system was calibrated using pH 1.68, 4.01, 6.87, 9.18 aqueous buffer solutions. In highly basic solutions, pH was measured by NMR-pH indicator molecules as well to avoid the uncertainty of the glass electrode pH-meter readings in such solutions [24]. The concentration of these pH indicators was 1.0 mM. For the analysis of NMR titration curves of proton chemical shifts versus pH, the software Origin Pro 8 (OriginLab Corp., Northampton,MA, USA) was used.
In baicalin, there are 12 protons connected to carbon atoms, but in ^1H NMR spectra, only the singlets of H8 and H3 on ring A and the doublet of the aromatic H2’,6′ protons can be easily assigned, while the other aromatic protons occur in complex spectrum of multiplets. The protons of the monosaccharide unit overlap with each other and with the signals of the antioxidant ascorbic acid. The suppression of the large water signal also interferes with the observation of certain NMR signals. Thus, during the NMR-pH titration, we followed the above-mentioned three chemical shift signal sets.
Since protonation processes are instantaneous on the NMR chemical shift time scale, the observed chemical shift (δ^obsd) of a certain nucleus can be expressed as a weighted average of chemical shifts of the non-, mono-, di- and triprotonated forms of baicalin (B):2 δ^obsd=δB^3‐xB^3‐+δHB^2‐xHB^2‐+δH2B^−xH2B^−+δH3BxH3B where weighting factors are mole fractions that can be expressed in terms of stepwise protonation macroconstants and the actual hydrogen ion concentration. For example, xH2B^− is:3 xH2B^−=K1K2H^+^2/1+K1H^++K1K2H^+^2+K1K2K3H^+^3
Combining and rearranging Eqs. (2) and (3) yield Eq. (4) that can be directly fitted to the ^1H-NMR titration curve of each nucleus observed.4 δ^obsd=δB^3‐+δHB^2‐K1H^++δH2B^−K1K2H^+^2+δH3BK1K2K3H^+^3/1+K1H^++K1K2H^+^2+K1K2K3H^+^3
The logarithms of the obtained protonation constants correspond to the negative logarithms of dissociation constants, namely pKa1 = logK3, pKa2 = logK2 and pKa3 = logK1 [28].

[7] = Stability in alkaline solution observed by NMR; format: physicochemical
Excerpt: Baicalin has three acidic functional moieties, one carboxyl and two phenolic hydroxyl groups. Proton transfer processes can be regarded either from the aspect of dissociation or association. Because of the acidic nature of baicalin, these processes will be characterized here in terms of acid dissociation constants (Ka). Carboxylic acids are typically orders of magnitude stronger than phenols. The determination of baicalin dissociation constants is hampered by its poor water solubility and sensitivity of oxidation of the catechol structure on its A ring. The acid/base properties of baicalin have been investigated earlier, resulting in pKa1, pKa2 and pKa3 values of 5.05, 7.6 and 10.1, respectively. […] We decided to undertake the characterization of baicalin by NMR-pH titrations, where the molecule was protected from oxidation by the antioxidant ascorbic acid up to pH ≈ 13.
NMR-pH titrations were performed on a Varian VNMRS spectrometer (600 MHz for ^1H). Spectra were recorded at 25°C. […] Spectra were processed with VNMRj 3.2a software. pH values were read on a Metrohm 2.780.0010 precision pH meter with a 6.0258.600 Unitrode glass Pt 1000 electrode (Metrohm AG, Herisau, Switzerland). […] In highly basic solutions, pH was measured by NMR-pH indicator molecules as well to avoid the uncertainty of the glass electrode pH-meter readings in such solutions [24]. […]

[8] = parameters: method as in PMID 16107266; settings: cited from earlier work
[9] = UV-pH titration, called highly dubious by the authors
[10] = NMR-pH titration, 25°C, ionic strength 0.15 M, ascorbic acid as antioxidant

SMILES: O=C(O)[C@H]1O[C@@H](Oc2cc3oc(-c4ccccc4)cc(=O)c3c(O)c2O)[C@H](O)[C@@H](O)[C@@H]1O [Baicalin, 7-D-glucuronic acid-5,6-dihydroxyflavone]
- solubility thermodynamic at 24 h ([1]; distilled water (Aqua dest.), read-out: Thermodynamic solubility): 67 µg/mL (≈ 150 µM)
- solubility thermodynamic at 24 h ([1]; fassgf or other biorelevant, thermodynamic from solid, pH 1.6 FaSSGF, read-out: Thermodynamic solubility): 33.2 µg/mL (≈ 74.4 µM)
- solubility thermodynamic at 24 h ([1]; simulated gastric fluid (SGF), simulated gastric fluid, thermodynamic from solid, pH 1.2 SGF, read-out: Thermodynamic solubility (intrinsic solubility)): 11.6 µg/mL (≈ 26.1 µM)
- solubility thermodynamic at 24 h ([1]; simulated intestinal fluid (SIF), fassgf or other biorelevant, thermodynamic from solid, pH 6.8 SIF, read-out: Thermodynamic solubility): 10500 µg/mL (≈ 23500 µM)
- solubility thermodynamic at 24 h ([1]; thermodynamic from solid, pH 6.5 FaSSIF, read-out: Thermodynamic solubility): 8110 µg/mL (≈ 18200 µM)
- log P [2]: 1.27
- difference between the lipophilicity of the neutral and the anionic form [3]: 2.56 log unit
- logD at 2 h ([3]; standardized 0.15 M HCl solution, 25°C, SD in brackets, read-out: log D (characterizes the log P of the neutral form)): 1.28
- water solubility [4]: 54 µg/mL (≈ 121 µM)
- pKa2 [5, 9]: 7.6
- pKa3 [5, 9]: 10.1
- pKa1 ([5]; earlier investigation): 5.05
- pKa ([6]; NMR-pH titration, 25°C, ionic strength 0.15 M, ascorbic acid as antioxidant, read-out: pKa1 (acid dissociation constant)): 4.21
- pKa ([6]; NMR-pH titration, 25°C, ionic strength 0.15 M, ascorbic acid as antioxidant, read-out: pKa2 (acid dissociation constant)): 8.56
- pKa ([6]; NMR-pH titration, 25°C, ionic strength 0.15 M, ascorbic acid as antioxidant, read-out: pKa3 (acid dissociation constant)): > 14
- mole fraction of the monoanionic form ([H2B]−) ([6]; pH 6.8 SIF): 98.0%
- relative concentration of the dianionic form (HB2−) ([6]; pH 7.40, calculated from pKa values): 6.5%
- mole fraction of the monoanionic form ([H2B]−) ([6]; pH of blood (pH 7.40)): 93.5%
- stability in alkaline solution (decomposition) ([7]; NMR investigations, without antioxidant): rapidly decomposes above pH 9
- stability in alkaline solution (oxidation) ([7]; in the presence of a large excess of ascorbic acid): rapid oxidation of baicalin above pH 13
- absolute bioavailability [8]: 2.2 ± 0.2%

SMILES: COC(=O)[C@H]1O[C@@H](Oc2cc3oc(-c4ccccc4)cc(=O)c3c(O)c2O)[C@H](O)[C@@H](O)[C@@H]1O [Baicalin methyl ester]
- pKa1 (acid dissociation constant) [6, 10]: 8.78
- pKa2 (acid dissociation constant) [6, 10]: > 14
